Test [1] has as its target T1, SSB-2 SPRY domain (SSB-2ΔSB, residues 12-224) (Mus musculus, UniProt O88838).
T1 construct: GST (N, cleaved yes); made in house; host or cells: E. coli BL21 (DE3)
T1 sequence (O88838 12-224): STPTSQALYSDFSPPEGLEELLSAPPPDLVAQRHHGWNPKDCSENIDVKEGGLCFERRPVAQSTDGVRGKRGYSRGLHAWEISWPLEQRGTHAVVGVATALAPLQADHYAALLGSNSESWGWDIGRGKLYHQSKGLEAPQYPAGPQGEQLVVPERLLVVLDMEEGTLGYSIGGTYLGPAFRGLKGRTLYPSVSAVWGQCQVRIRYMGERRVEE
The test is described as follows: ITC of SSB-2 SPRY domain with iNOS N-terminal peptides. It counts as binding. Conditions: 25° C., 100 mM TrisHCl, 150 mM NaCl, pH 8.0. An excerpt:
The construct used for expression of recombinant murine SSB-2 protein included almost all the native sequence of mouse SSB-2 except for the SOCS box and the first eleven residues (residues 12-224, SWISS-PROT accession number 088838). This sequence, together with six residues at the N-terminus (GSSARQ (SEQ ID NO:38), numbered 6-11) and seven at the C-terminus (TRRIHRD (SEQ ID NO:39), numbered 225-231), both originating from the vector, gave a construct of 226 residues in total. This was expressed as a GST fusion protein in BL21 (DE3) E. coli. For ITC and co-precipitation experiments, bacteria were grown in L-broth. For NMR analysis, bacteria were grown in M9 minimal media supplemented with ^15N NH4Cl (99%, 1 g L−1). The GST fusion protein was purified from clarified cell lysates using Glutathione Sepharose 4B (Amersham Biosciences) then cleaved in situ using thrombin (Roche). […]
To determine whether the SSB-2-SPRY domain could interact with the sequence identified by the database searches, a series of peptides including the wild-type and various mutant sequences corresponding to amino acids 19-31 of murine iNOS, were synthesized and binding affinities for the SSB-2-SPRY domain (residues 12-224; SSB-2ΔSB) measured using isothermal titration calorimetry (ITC) (Table 2, FIG. 3).

The target in test [2] is T2, SSB-2/elongin BC complex ubiquitination of iNOS (Mus musculus, UniProt O88838).
T2 sequence (O88838 1-264): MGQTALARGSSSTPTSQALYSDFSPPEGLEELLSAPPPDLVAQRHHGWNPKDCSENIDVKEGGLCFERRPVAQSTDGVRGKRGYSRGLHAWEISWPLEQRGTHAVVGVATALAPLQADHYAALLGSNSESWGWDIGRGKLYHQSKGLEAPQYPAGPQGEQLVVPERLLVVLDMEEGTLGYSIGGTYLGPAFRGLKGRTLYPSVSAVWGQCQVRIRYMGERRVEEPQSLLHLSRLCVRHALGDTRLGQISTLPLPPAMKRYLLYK
The test is described as follows: Cell-free ubiquitination assay of iNOS. Type of test: biochemical. Conditions: excess free iNOS peptide; 10 and 40 min incubation. The method, then: Ubiquitination assays were performed in 20 μl in 20 mM Tris-HCl, 50 mM NaCl, 5 mM MgCl2, 2.5 mM ATP, 0.1 mM DTT. Reactions were stopped by the addition of 2×SDS PAGE loading buffer and heating at 95° C. for 5 min. Reactions contained 0.1 μM E1, 2.5 μM E2, 2.5 μM E3, 50 μM ubiquitin and 5 μM SSB-2/elonginBC and were incubated for 30 minutes or as indicated at 37° C. Cell lysate was added as substrate. Results were visualised by Western Blot using anti iNOS monoclonal antibody following SDS-PAGE.
SOCS box proteins recruit an E3 ubiquitin ligase complex which in the presence of E1 and […] enzymes polyubiquitinates interacting proteins, targeting them for proteasomal degradation. […] LPS/IFNγ stimulated macrophage lysates were used as a source of iNOS and incubated with ubiquitin and a trimeric SSB-2/elongin BC complex, in the presence of E1 and E2 enzymes, Rbx 1 and Cullin5. The reaction mixtures were then analysed by SDS-PAGE and Western blot with anti-iNOS antibodies. Enhanced. polyubiquitination of iNOS, as evidenced by higher molecular weight smearing, was observed after 10 and 40 min incubation in the presence of the SSB2/elongin BC complex.

For the substance “Ac-KEEKDINNNVKKT-NH2 [I, Ac-KEEKDINNNVKKT-NH2]”, in test [1], binding was characterised by a dissociation constant (Kd) of 13 nM. The “inhibition of polyubiquitination of iNOS” value in test [2] is on record as “completely inhibited”.

These data come from patent US20120308570A1, “METHODS FOR TREATING DISEASES” (priority 2009, published 2012).
